Measured values: PubChem BioAssay (NCI)
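Step 1: Grow cells in 96-well plates. Step 2: Expose to compound for 48 hours at 5 concentrations. Step 3: Interpolate endpoints linearly; if unreached, use highest concentration. Definition used: TGI = concentration required for complete inhibition of growth.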

Columns and labels:
Experiment in all cases: NCI anticancer screen, dose series, 48 h
HCT-15 colon = tested on: HCT-15 colon
M19-MEL melanoma = tested on: M19-MEL melanoma
SF-268 CNS = tested on: SF-268 CNS
M14 melanoma = tested on: M14 melanoma
OVCAR-4 ovarian = tested on: OVCAR-4 ovarian
EKVX NSCLC = tested on: EKVX NSCLC
K-562 leukemia = tested on: K-562 leukemia
XF 498 CNS = tested on: XF 498 CNS
KM20L2 colon = tested on: KM20L2 colon
SF-539 CNS = tested on: SF-539 CNS
SNB-75 CNS = tested on: SNB-75 CNS
SN12C renal = tested on: SN12C renal
HOP-62 NSCLC = tested on: HOP-62 NSCLC
A549 NSCLC = tested on: A549 NSCLC
UACC-62 melanoma = tested on: UACC-62 melanoma
OVCAR-5 ovarian = tested on: OVCAR-5 ovarian
DMS 114 small cell lung = tested on: DMS 114 small cell lung
SNB-19 CNS = tested on: SNB-19 CNS
DMS 273 small cell lung = tested on: DMS 273 small cell lung
MOLT-4 leukemia = tested on: MOLT-4 leukemia
TK-10 renal = tested on: TK-10 renal
KM12 colon = tested on: KM12 colon
SK-MEL-28 melanoma = tested on: SK-MEL-28 melanoma
OVCAR-3 ovarian = tested on: OVCAR-3 ovarian
LXFL 529 NSCLC = tested on: LXFL 529 NSCLC
HCT-116 colon = tested on: HCT-116 colon
NCI-H460 lung = tested on: NCI-H460 lung
RXF 393 renal = tested on: RXF 393 renal
COLO 205 colon = tested on: COLO 205 colon
786-0 renal = tested on: 786-0 renal
IGROV1 ovarian = tested on: IGROV1 ovarian
SK-MEL-5 melanoma = tested on: SK-MEL-5 melanoma
SR leukemia = tested on: SR leukemia
SNB-78 CNS = tested on: SNB-78 CNS
HCC-2998 colon = tested on: HCC-2998 colon
SF-295 CNS = tested on: SF-295 CNS
SW-620 colon = tested on: SW-620 colon
UO-31 renal = tested on: UO-31 renal
ACHN renal = tested on: ACHN renal
HL-60(TB) leukemia = tested on: HL-60(TB) leukemia
OVCAR-8 ovarian = tested on: OVCAR-8 ovarian
LOX IMVI melanoma = tested on: LOX IMVI melanoma
NCI-H23 lung = tested on: NCI-H23 lung
MALME-3M melanoma = tested on: MALME-3M melanoma
HT29 colon = tested on: HT29 colon
SK-MEL-2 melanoma = tested on: SK-MEL-2 melanoma
U251 CNS = tested on: U251 CNS
CCRF-CEM leukemia = tested on: CCRF-CEM leukemia
NCI-H522 lung = tested on: NCI-H522 lung
RPMI-8226 leukemia = tested on: RPMI-8226 leukemia
DLD-1 colon = tested on: DLD-1 colon
HOP-92 NSCLC = tested on: HOP-92 NSCLC
SK-OV-3 ovarian = tested on: SK-OV-3 ovarian
HOP-18 NSCLC = tested on: HOP-18 NSCLC
CAKI-1 renal = tested on: CAKI-1 renal
UACC-257 melanoma = tested on: UACC-257 melanoma
NCI-H226 lung = tested on: NCI-H226 lung
A498 renal = tested on: A498 renal
BT-549 breast = tested on: BT-549 breast
PC-3 prostate = tested on: PC-3 prostate
DU-145 prostate = tested on: DU-145 prostate
MDA-MB-231 breast = tested on: MDA-MB-231 breast
T-47D breast = tested on: T-47D breast
NCI/ADR-RES ovarian = tested on: NCI/ADR-RES ovarian
HS 578T breast = tested on: HS 578T breast
MCF7 breast = tested on: MCF7 breast
MDA-N = tested on: MDA-N
MDA-MB-435 = tested on: MDA-MB-435

Question: Which results are given for `O=C1CCC(=O)N1Cc1ccccc1N=[N+]([O-])c1ccccc1CN1C(=O)CCC1=O`?
Answer: TGI (HCT-15 colon): > 100 µM; TGI (M19-MEL melanoma): > 100 µM; TGI (SF-268 CNS): > 100 µM; TGI (M14 melanoma): > 100 µM; TGI (OVCAR-4 ovarian): > 100 µM; TGI (EKVX NSCLC): > 100 µM; TGI (K-562 leukemia): > 100 µM; TGI (XF 498 CNS): > 100 µM; TGI (KM20L2 colon): > 100 µM; TGI (SF-539 CNS): > 100 µM; TGI (SNB-75 CNS): 65.6 µM; TGI (SN12C renal): > 100 µM; TGI (HOP-62 NSCLC): > 100 µM; TGI (A549 NSCLC): > 100 µM; TGI (UACC-62 melanoma): > 100 µM; TGI (OVCAR-5 ovarian): > 100 µM; TGI (DMS 114 small cell lung): > 100 µM; TGI (SNB-19 CNS): > 100 µM; TGI (DMS 273 small cell lung): > 100 µM; TGI (MOLT-4 leukemia): > 100 µM; TGI (TK-10 renal): > 100 µM; TGI (KM12 colon): > 100 µM; TGI (SK-MEL-28 melanoma): > 100 µM; TGI (OVCAR-3 ovarian): > 100 µM; TGI (LXFL 529 NSCLC): > 100 µM; TGI (HCT-116 colon): > 100 µM; TGI (NCI-H460 lung): > 100 µM; TGI (RXF 393 renal): > 100 µM; TGI (COLO 205 colon): > 100 µM; TGI (786-0 renal): > 100 µM; TGI (IGROV1 ovarian): > 100 µM; TGI (SK-MEL-5 melanoma): > 100 µM; TGI (SR leukemia): > 100 µM; TGI (SNB-78 CNS): > 100 µM; TGI (HCC-2998 colon): > 100 µM; TGI (SF-295 CNS): > 100 µM; TGI (SW-620 colon): > 100 µM; TGI (UO-31 renal): > 100 µM; TGI (ACHN renal): > 100 µM; TGI (HL-60(TB) leukemia): > 100 µM; TGI (OVCAR-8 ovarian): > 100 µM; TGI (LOX IMVI melanoma): > 100 µM; TGI (NCI-H23 lung): > 100 µM; TGI (MALME-3M melanoma): > 100 µM; TGI (HT29 colon): > 100 µM; TGI (SK-MEL-2 melanoma): > 100 µM; TGI (U251 CNS): > 100 µM; TGI (CCRF-CEM leukemia): > 100 µM; TGI (NCI-H522 lung): > 100 µM; TGI (RPMI-8226 leukemia): > 100 µM

Question: Which results are given for `N#CN=C(N)NC(=O)/C=C/C=C/c1ccc(Cl)cc1`?
Answer: TGI (DLD-1 colon): > 100 µM; TGI (HCT-15 colon): > 100 µM; TGI (M19-MEL melanoma): > 100 µM; TGI (HOP-92 NSCLC): > 100 µM; TGI (SF-268 CNS): > 100 µM; TGI (M14 melanoma): > 100 µM; TGI (OVCAR-4 ovarian): > 100 µM; TGI (K-562 leukemia): > 100 µM; TGI (KM20L2 colon): > 100 µM; TGI (SK-OV-3 ovarian): > 100 µM; TGI (SF-539 CNS): 50.4 µM; TGI (SNB-75 CNS): 54.8 µM; TGI (SN12C renal): > 100 µM; TGI (HOP-62 NSCLC): > 100 µM; TGI (A549 NSCLC): > 100 µM; TGI (UACC-62 melanoma): > 100 µM; TGI (OVCAR-5 ovarian): > 100 µM; TGI (HOP-18 NSCLC): > 100 µM; TGI (DMS 114 small cell lung): > 100 µM; TGI (DMS 273 small cell lung): > 100 µM; TGI (MOLT-4 leukemia): > 100 µM; TGI (TK-10 renal): > 100 µM; TGI (CAKI-1 renal): > 100 µM; TGI (KM12 colon): > 100 µM; TGI (SK-MEL-28 melanoma): > 100 µM; TGI (OVCAR-3 ovarian): > 100 µM; TGI (LXFL 529 NSCLC): > 100 µM; TGI (HCT-116 colon): > 100 µM; TGI (NCI-H460 lung): > 100 µM; TGI (UACC-257 melanoma): > 100 µM; TGI (RXF 393 renal): > 100 µM; TGI (COLO 205 colon): > 100 µM; TGI (786-0 renal): > 100 µM; TGI (IGROV1 ovarian): > 100 µM; TGI (SK-MEL-5 melanoma): > 100 µM; TGI (SR leukemia): > 100 µM; TGI (SNB-78 CNS): > 100 µM; TGI (SF-295 CNS): > 100 µM; TGI (SW-620 colon): > 100 µM; TGI (UO-31 renal): > 100 µM; TGI (ACHN renal): > 100 µM; TGI (HL-60(TB) leukemia): > 100 µM; TGI (OVCAR-8 ovarian): > 100 µM; TGI (LOX IMVI melanoma): > 100 µM; TGI (NCI-H23 lung): > 100 µM; TGI (MALME-3M melanoma): > 100 µM; TGI (HT29 colon): > 100 µM; TGI (SK-MEL-2 melanoma): > 100 µM; TGI (U251 CNS): > 100 µM; TGI (CCRF-CEM leukemia): > 100 µM; TGI (NCI-H522 lung): > 100 µM; TGI (NCI-H226 lung): > 100 µM; TGI (A498 renal): > 100 µM; TGI (RPMI-8226 leukemia): > 100 µM

Question: What does the source list for `CC(=O)OC(C)C1C2=C(C(=O)CC1(C)O)C(=O)c1c(ccc(-c3ccc4c(c3O)C(=O)C3=C(C4=O)C(C(C)OC(C)=O)C(C)(O)CC3=O)c1O)C2=O` (stereo unspecified)?
Answer: TGI (DLD-1 colon): 2.43 µM; TGI (HCT-15 colon): 5.49 µM; TGI (M19-MEL melanoma): 2.7 µM; TGI (HOP-92 NSCLC): 3.08 µM; TGI (SF-268 CNS): 19.4 µM; TGI (M14 melanoma): 4.3 µM; TGI (OVCAR-4 ovarian): 5.26 µM; TGI (EKVX NSCLC): 26.1 µM; TGI (BT-549 breast): 2.83 µM; TGI (K-562 leukemia): > 100 µM; TGI (KM20L2 colon): 4.59 µM; TGI (SK-OV-3 ovarian): 23.6 µM; TGI (PC-3 prostate): 8.74 µM; TGI (DU-145 prostate): 18.3 µM; TGI (SF-539 CNS): 3.54 µM; TGI (SNB-75 CNS): 5.92 µM; TGI (SN12C renal): 6.58 µM; TGI (HOP-62 NSCLC): 33.4 µM; TGI (A549 NSCLC): 18.8 µM; TGI (UACC-62 melanoma): 3.1 µM; TGI (OVCAR-5 ovarian): 11.3 µM; TGI (HOP-18 NSCLC): 1.74 µM; TGI (DMS 114 small cell lung): 1.24 µM; TGI (SNB-19 CNS): 24 µM; TGI (DMS 273 small cell lung): 3.05 µM; TGI (MOLT-4 leukemia): > 100 µM; TGI (TK-10 renal): 5.41 µM; TGI (CAKI-1 renal): 6.06 µM; TGI (KM12 colon): 10.6 µM; TGI (SK-MEL-28 melanoma): 4.7 µM; TGI (OVCAR-3 ovarian): 5.29 µM; TGI (LXFL 529 NSCLC): 1.51 µM; TGI (MDA-MB-231 breast): 4.98 µM; TGI (T-47D breast): 4.61 µM; TGI (HCT-116 colon): 1.77 µM; TGI (NCI-H460 lung): 21.7 µM; TGI (UACC-257 melanoma): 3.48 µM; TGI (RXF 393 renal): 3.59 µM; TGI (COLO 205 colon): 1.92 µM; TGI (786-0 renal): 3.44 µM; TGI (IGROV1 ovarian): 22.4 µM; TGI (SK-MEL-5 melanoma): 8.22 µM; TGI (NCI/ADR-RES ovarian): 45.1 µM; TGI (SR leukemia): 26.5 µM; TGI (HS 578T breast): 5 µM; TGI (SNB-78 CNS): 9.63 µM; TGI (HCC-2998 colon): 25.9 µM; TGI (SF-295 CNS): 24 µM; TGI (SW-620 colon): 2.1 µM; TGI (UO-31 renal): 9.16 µM; TGI (ACHN renal): 3.22 µM; TGI (HL-60(TB) leukemia): > 100 µM; TGI (OVCAR-8 ovarian): 7.42 µM; TGI (MCF7 breast): 4.06 µM; TGI (LOX IMVI melanoma): 3.07 µM; TGI (NCI-H23 lung): 3.07 µM; TGI (MDA-N): 7.34 µM; TGI (MALME-3M melanoma): 2.12 µM; TGI (HT29 colon): 3.98 µM; TGI (SK-MEL-2 melanoma): 2.74 µM; TGI (U251 CNS): 12.9 µM; TGI (MDA-MB-435): 4.19 µM; TGI (CCRF-CEM leukemia): > 100 µM; TGI (NCI-H522 lung): 4.25 µM; TGI (NCI-H226 lung): 27.8 µM; TGI (A498 renal): 8.51 µM; TGI (RPMI-8226 leukemia): > 100 µM
